PubChem BioAssay (NCI)
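Compound exposure: 48 hours, 5 concentrations, 96-well plates. At the GI50, growth is halved. TGI denotes the concentration required for complete inhibition of growth.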

Legend:
Assay in all cases: inhibition of tumour cell growth, NCI panel, 48 h
HCT-116 colon = system: HCT-116 colon
HCT-15 colon = system: HCT-15 colon
NCI/ADR-RES ovarian = system: NCI/ADR-RES ovarian
SK-MEL-2 melanoma = system: SK-MEL-2 melanoma
T-47D breast = system: T-47D breast
TK-10 renal = system: TK-10 renal
BT-549 breast = system: BT-549 breast
MOLT-4 leukemia = system: MOLT-4 leukemia

| SMILES | TGI (HCT-116 colon) [µM] | TGI (HCT-15 colon) [µM] | TGI (NCI/ADR-RES ovarian) [µM] | TGI (SK-MEL-2 melanoma) [µM] | TGI (T-47D breast) [µM] | TGI (TK-10 renal) [µM] | TGI (BT-549 breast) [µM] | TGI (MOLT-4 leukemia) [µM] | GI50 (SK-MEL-2 melanoma) [µM] |
| --- | --- | --- | --- | --- | --- | --- | --- | --- | --- |
| CC1C(c2ccc(F)cc2)c2cc3c(cc2OC1N1CCCC1)OCO3 (centres undefined) | > 100 | > 100 | > 100 | > 100 | > 100 | > 100 |  |  |  |
| CNC(=S)/C(=N\Nc1nc[nH]c1C(N)=O)C(N)=S | > 100 | > 100 | > 64.5 | > 82.3 | > 89.3 | > 57.5 | > 100 |  |  |
| CCN1CC2=C(N=c3s/c(=C\c4ccc(Cl)cc4)c(=O)n3C2c2ccc(Cl)cc2)/C(=C/c2ccc(Cl)cc2)C1 (centres undefined) | > 100 | > 100 | > 100 | > 100 |  | 62.5 | 85.8 | > 100 |  |
| CCN(CC)c1ccc(/C=C(\C#N)c2nc(N)nc(N3N=C(C)CC3(C)C)n2)cc1 | 34.1 | > 100 | > 49.4 | 34.1 | 39.6 | 31.7 | > 100 | > 100 |  |
| O=c1c(O)c(-c2ccc(O)cc2O)oc2cc(O)cc(O)c12 | > 100 | > 100 | > 100 | > 100 | > 100 | > 100 |  |  |  |
| O=c1[nH]c2ccc(C(F)(F)F)cc2nc1-c1ccccc1 | > 100 | > 100 | > 100 |  | > 100 | > 100 | > 100 | > 100 |  |
| CSc1ccc2c(cc1=O)[C@@H](NC(C)=O)CCc1cc(O)c(O)c(O)c1-2 | > 100 | 34.2 | 58.3 | > 100 | > 100 | 34.6 | 56.9 | > 100 |  |
| O=c1c2ccccc2nc2n1NC(c1c(Cl)cccc1Cl)N2c1cccc(Cl)c1 (centres undefined) | 11.6 | > 100 | 68.5 | > 100 | 32.2 | 21.8 | > 100 | > 100 |  |
| O=C(O)CC(C(=O)O)c1ccccc1[N+](=O)[O-] (centres undefined) | > 100 | > 100 | > 100 | > 100 | > 100 | > 100 | > 100 |  |  |
| CCN(CC)C(=S)SS(=O)(=O)c1ccccc1C(=O)O | > 100 | > 100 | > 100 | > 100 | > 100 | > 100 | > 100 | > 100 |  |
| COC(CN(C)C(=O)C(C)NC(=O)c1ccccc1)OC (centres undefined) | > 100 | > 100 | > 100 | > 100 | > 100 | > 100 | > 100 | > 100 |  |
| Cc1[nH]c2ncn3nc(C(Cl)(Cl)Cl)nc3c2c1Cc1ccccc1 | > 100 | > 100 | > 100 | > 100 | > 100 | > 100 | > 100 | > 100 |  |
| Cc1ccc(S(=O)ON2CCC(C(=O)O)(c3ccccc3)CC2)cc1 (centres undefined) | > 100 | > 100 | > 100 | > 100 | > 100 | > 100 | > 100 | > 100 | > 100 |
| Clc1ccc(-c2nn3c(CCCCCCCCc4nnc5sc(-c6ccc(Cl)cc6)nn45)nnc3s2)cc1 | 75 | > 100 | > 87.2 | > 70.5 | 34 | > 100 | > 79.5 | 33.2 |  |
| COc1ccc2c(c1)C(N)CC2=O (centres undefined) | > 100 | > 100 | > 100 | 74.1 | > 100 | > 100 | > 100 | > 100 |  |
| CN1CCCN2CCN(C)CCN(CC1)CC2 | > 100 | > 100 | > 100 | > 100 | > 100 | > 100 | > 100 | > 100 |  |
| O=C(c1ccccc1)c1ccc(C(c2c(O)c3ccccc3oc2=O)c2c(O)c3ccccc3oc2=O)cc1 | > 80.2 | > 95.3 | 62.5 | > 71.3 | > 100 | 36.7 | 48.9 | 53.9 |  |
| CCOC(=O)CN1CCNCCN(CC(=O)OCC)CCNCC1 | > 100 | > 100 | > 100 | > 100 | > 100 | > 100 | > 100 | > 100 |  |
| O=C(NN=C1CCN(Cc2ccccc2)CC1)C(O)(c1ccccc1)c1ccccc1 | > 100 | > 100 | > 100 |  | > 100 | > 100 |  | > 100 |  |
| CCOC(=O)c1c(C)n(Cc2ccccc2)c(=O)c2ccccc2c(=O)c2c(=O)ccc(=O)c1=2 | 46.8 | > 100 | > 100 | > 100 | 86.3 | 54 |  | > 100 |  |
| CC(=O)OCC1OC(On2ccccc2=S)C(OC(C)=O)C(OC(C)=O)C1OC(C)=O (centres undefined) | > 100 | > 100 | > 100 | > 100 | > 100 | > 100 | > 100 | > 100 |  |
| CCOc1c2ccsc2c(OCC)c2ccsc12 | > 100 | > 30.7 | > 100 | > 100 | > 100 | > 100 | > 100 | > 28.5 |  |
| COC(=O)c1ccccc1C1CN=NC12Cc1ccc3ccccc3c1C2=O (centres undefined) |  | > 100 | > 100 | > 100 | 96.9 | > 100 | > 100 | > 100 |  |
| C=C[C@@H]1OC(=O)O[C@H]1CO | > 100 | > 100 | > 100 | > 100 |  | > 100 |  | > 100 |  |
| O=C(Cn1c(=O)ccn(C2OC(CO)C(O)C2F)c1=O)c1ccc(F)cc1 (centres undefined) | > 100 | > 100 | > 100 |  | > 100 | > 100 |  | > 100 |  |
| CCN(CC)CCn1c(C(C)(C)C)nc2ccccc21 | > 100 | > 100 | > 100 |  |  | > 100 | > 100 | > 100 |  |
| COc1ccc2[nH]c(CCNC(=O)c3cc([N+](=O)[O-])cc([N+](=O)[O-])c3)cc2c1 | > 100 | > 100 | > 100 | > 100 | 90.6 | > 100 | > 100 | > 100 |  |
